Results from US11312721B2 (priority 2015, dated 2022).

These compounds were tested against T1, α5β3γ2 GABAA receptors (Ltk cells) (Homo sapiens, UniProt P18507+P31644) (assay: Binding activity on GABAAR: inhibition of [3H]Ro15-1788 binding).
T1 construct: membranes
T1 sequence (P31644 32-462): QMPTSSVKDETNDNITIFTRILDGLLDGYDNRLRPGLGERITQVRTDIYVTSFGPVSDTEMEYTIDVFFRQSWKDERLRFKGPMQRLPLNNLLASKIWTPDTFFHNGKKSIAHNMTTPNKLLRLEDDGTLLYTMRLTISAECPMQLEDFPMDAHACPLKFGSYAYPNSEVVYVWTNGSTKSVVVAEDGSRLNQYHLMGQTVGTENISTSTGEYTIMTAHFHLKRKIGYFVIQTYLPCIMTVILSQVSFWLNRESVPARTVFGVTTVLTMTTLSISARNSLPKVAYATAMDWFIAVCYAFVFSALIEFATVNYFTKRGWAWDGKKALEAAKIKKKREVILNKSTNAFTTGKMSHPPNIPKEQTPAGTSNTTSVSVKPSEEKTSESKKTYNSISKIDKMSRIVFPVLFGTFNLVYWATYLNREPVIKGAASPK
T1 sequence (P28472 26-473 partner): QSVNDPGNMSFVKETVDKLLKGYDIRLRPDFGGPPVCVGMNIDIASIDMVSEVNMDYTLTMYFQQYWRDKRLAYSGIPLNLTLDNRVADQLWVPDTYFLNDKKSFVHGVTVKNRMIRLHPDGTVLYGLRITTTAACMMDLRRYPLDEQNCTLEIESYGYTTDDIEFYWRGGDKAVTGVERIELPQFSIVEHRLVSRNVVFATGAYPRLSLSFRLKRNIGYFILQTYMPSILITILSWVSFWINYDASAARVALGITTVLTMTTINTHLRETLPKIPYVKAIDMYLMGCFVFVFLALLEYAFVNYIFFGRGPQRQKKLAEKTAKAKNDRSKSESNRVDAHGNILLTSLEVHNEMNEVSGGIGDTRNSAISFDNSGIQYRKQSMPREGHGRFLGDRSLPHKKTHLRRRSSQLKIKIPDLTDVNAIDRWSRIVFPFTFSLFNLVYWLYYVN
T1 sequence (P18507 40-475): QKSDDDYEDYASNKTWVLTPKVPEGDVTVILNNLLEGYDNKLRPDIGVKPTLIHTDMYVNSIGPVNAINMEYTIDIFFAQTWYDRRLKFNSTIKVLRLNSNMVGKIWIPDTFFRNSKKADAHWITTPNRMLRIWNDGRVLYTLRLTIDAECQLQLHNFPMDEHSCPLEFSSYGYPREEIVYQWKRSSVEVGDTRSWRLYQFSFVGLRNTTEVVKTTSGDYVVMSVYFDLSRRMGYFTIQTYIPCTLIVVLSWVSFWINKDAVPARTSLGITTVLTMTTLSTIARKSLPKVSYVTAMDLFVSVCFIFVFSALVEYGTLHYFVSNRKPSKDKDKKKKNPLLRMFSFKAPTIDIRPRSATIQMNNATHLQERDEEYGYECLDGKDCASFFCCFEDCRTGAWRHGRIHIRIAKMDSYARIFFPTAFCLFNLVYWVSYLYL
Method: Tissue culture and Membrane Preparation: The binding was performed on Ltk cells stably expressing GABAA receptors: α1β1γ2, α2β3γ2, α3β3γ2 and α5β3γ2 (provided by Merck Co., NJ, USA). Cells were seeded in 100 mm culture plates in DMEM/F12 medium containing 10% serum and antibiotics in 5% CO2 and allowed to grow for 1-2 days. GABAAR expression was then induced by dexamethasone as follows: 0.5 μM for 1 day for α5 containing and 2 μM for 3 days for α1, α2 and α3 containing GABAARs. After induction, cells were collected by scraping into Dulbecco's Phosphate buffered saline (DPBS, pH 7.4, Invitrogen, Carlsbad, Calif., USA) and centrifuged at 150×g for 10 min. The pellet was washed twice by re-suspension and centrifugation. The cell pellets from at least 5 different preps were combined, suspended in the binding assay buffer (50 mM KH2PO4; 1 mM EDTA; 0.2 M KCl, pH 7.4) and membranes prepared by sonication (3-5 times, 30 sec) using Branson Sonifier 150 (G. Heinmann, Germany). Protein content was determined using BCA assay (Bio-Rad Labs, Reinach, Switzerland) with Bovine Serum Albumin (Sigma Aldrich, St. Louis, Mo., USA) as the standard. Aliquots were prepared and stored at −20° C. for further use in binding assays.
Ligand Binding: Saturation binding curves were obtained by incubating membranes with increasing concentrations (0.01-8 nM) of [^3H]Ro15-1788 (Flumazepil, 75-85 Ci/mmol, PerkinElmer, MA, USA), with nonspecific binding measured in the presence of 10 μM diazepam.
All binding assays were performed for 1 h at 4° C. in assay buffer. The total assay volume was 0.5 ml containing 0.2 mg/ml protein for α5 and 0.4 mg/ml for α1, α2, and α3 containing GABAAR membranes. Incubations were terminated by filtration through GF/B filters using a 24-Cell Harvestor (Brandel, Gaithersburg, Md., USA) followed by 3 washes with ice-cold assay buffer. Filters were transferred to scintillation vials, 5 ml scintillation liquid added, vortex-mixed and kept in dark. Next day, radioactivity was obtained using a scintillation counter (Beckman Coulter, Brea, Calif., USA). All assays were performed in triplicate.
Data Analyses: Saturation and inhibition curves were obtained using GraphPad Prism software (GraphPad Software, Inc., CA, USA).
`CCOC(=O)c1ncn2c1Cc1c(Cc3ccc(F)cc3)nnn1-c1cc(F)ccc1-2` [Compound 46] was tested, and the Ki was under 99 nM.
`CCOC(=O)c1ncn2c1Cc1c(Cc3ccccc3Cl)nnn1-c1cc(C)ccc1-2` [Compound 54] showed a Ki of under 99 nM.
`CCOC(=O)c1ncn2c1Cc1c(Cc3ccccc3)nnn1-c1cc(C)ccc1-2` [Compound 101] gave a Ki of under 99 nM.
In the case of `CCOC(=O)c1ncn2c1Cc1c(C)nnn1-c1cc(C)ccc1-2` [Compound 102], the Ki is reported as under 99 nM.
`Cc1cccc(C)c1OCc1nnc2n1Cc1c(-c3noc(C(C)C)n3)ncn1-c1ccc(F)cc1-2` [Compound 190] showed a Ki of under 99 nM.
`N#Cc1ncn2c1Cn1c(COc3ccccc3)nnc1-c1cc(Cl)ccc1-2` [Compound 197] showed a Ki of under 99 nM.
With `COCc1nnc2n1Cc1c(-c3nc(C(C)C)no3)ncn1-c1ccc(Cl)cc1-2` [Compound 206] the Ki was under 99 nM.
`COc1ccc2c(c1)-n1nnc(Cc3ccccc3Cl)c1Cc1c(C#N)ncn1-2` [Compound 208] gave a Ki of under 99 nM.
With `COc1ccc2c(c1)-n1nnc(Cc3cccc(Cl)c3)c1Cc1c(C#N)ncn1-2` [Compound 209] the Ki was under 99 nM.
For `CCOCc1nnc2n1Cc1c(Br)ncn1-c1ccc(Cl)cc1-2` [Compound 216], the Ki was under 99 nM.
For `COCc1nnc2n1Cc1c(Br)ncn1-c1ccc(Cl)cc1-2` [Compound 217], the Ki was under 99 nM.
`C#Cc1ncn2c1Cc1c(C(=O)c3ccc(F)cc3)nnn1-c1cc(OC)ccc1-2` [Compound 218] showed a Ki of under 99 nM.
`COc1ccc2c(c1)-n1nnc(COc3ccccc3F)c1Cc1c(C#N)ncn1-2` [Compound 223] was tested, and the Ki was under 99 nM.
Compound `N#Cc1ncn2c1Cc1c(COc3cccc(F)c3)nnn1-c1cc(Cl)ccc1-2` [Compound 227] has a Ki of under 99 nM.
`CC(C)c1nc(-c2ncn3c2Cc2c(C(=O)c4ccc(F)cc4)nnn2-c2ccc(F)cc2-3)no1` [Compound 230] showed a Ki of under 99 nM.
Compound `COc1ccc2c(c1)-c1nnc(COc3ccccc3)n1Cc1c(Br)ncn1-2` [Compound 232] has a Ki of under 99 nM.
`COCc1nnc2n1Cc1c(-c3cc(C)no3)ncn1-c1ccc(Cl)cc1-2` [Compound 233] was tested, and the Ki was under 99 nM.
In the case of `C#CCNC(=O)c1ncn2c1Cn1c(COC)nnc1-c1cc(Cl)ccc1-2` [Compound 234], the Ki is reported as over 1000 nM.
Compound `COc1ccc2c(c1)-c1nnc(COc3cccnc3)n1Cc1c(Br)ncn1-2` [Compound 235] has a Ki of under 99 nM.
`C#Cc1ncn2c1Cn1c(COc3ccccc3)nnc1-c1cc(OC)ccc1-2` [Compound 236] showed a Ki of under 99 nM.
`C#Cc1ncn2c1Cn1c(COc3cccnc3)nnc1-c1cc(OC)ccc1-2` [Compound 241] gave a Ki of under 99 nM.
For `COCc1nnc2n1Cc1c(C3=NC(c4ccccc4)CO3)ncn1-c1ccc(Cl)cc1-2` (stereo not drawn) [Compound 242], the Ki was under 99 nM.
Compound `COCc1nnc2n1Cc1c(-c3nc(C)co3)ncn1-c1ccc(Cl)cc1-2` [Compound 244] has a Ki of under 99 nM.
`COCc1nnc2n1Cc1c(-c3nc(-c4ccccc4)co3)ncn1-c1ccc(Cl)cc1-2` [Compound 245] showed a Ki of under 99 nM.
`COc1ccc2c(c1)-n1nncc1Cc1c(-c3nc(C)no3)ncn1-2` [Compound 258] showed a Ki of under 99 nM.
`CCOCc1nnc2n1Cc1c(C3=NC(C)CO3)ncn1-c1ccc(Cl)cc1-2` (stereo not drawn) [Compound 259] showed a Ki of under 99 nM.
Work on `CCOCc1nnc2n1Cc1c(C3=NC(c4ccccc4)CO3)ncn1-c1ccc(Cl)cc1-2` (stereo not drawn) [Compound 260] yielded a Ki of under 99 nM.
`C#Cc1ncn2c1Cn1c(COCC)nnc1-c1cc(Cl)ccc1-2` [Compound 261] gave a Ki of under 99 nM.
Work on `COCc1nnc2n1Cc1c(C3=N[C@H](c4ccccc4)CO3)ncn1-c1ccc(Cl)cc1-2` [Compound 263] yielded a Ki of under 99 nM.
Compound `CC(C)OCc1nnc2n1Cc1c(C3=N[C@H](c4ccccc4)CO3)ncn1-c1ccc(Cl)cc1-2` [Compound 268] has a Ki of under 99 nM.
For `CC(C)OCc1nnc2n1Cc1c(C3=N[C@@H](c4ccccc4)CO3)ncn1-c1ccc(Cl)cc1-2` [Compound 270], the Ki was under 99 nM.
For `CCOCc1nnc2n1Cc1c(C3=N[C@@H](c4ccccc4)CO3)ncn1-c1ccc(Cl)cc1-2` [Compound 275], the Ki was under 99 nM.
With `CC(C)OCc1nnc2n1Cc1c(-c3nc(-c4ccccc4)co3)ncn1-c1ccc(Cl)cc1-2` [Compound 276] the Ki was under 99 nM.
